Results as given in PMC11356900, “Synthesis, Structural Properties and Biological Activities of Novel Hydrazones of 2-, 3-, 4-Iodobenzoic Acid” (Molecules, 2024).
Values after ≈ are worked out from the molar mass of the structure shown.

Legend:
[1] = test system: Bacillus subtilis ATCC 6633; experiment: Broth microdilution MIC/MBC; details: ATCC6633
[2] = test system: Staphylococcus aureus ATCC 25923; experiment: Broth microdilution MIC/MBC; details: Staphylococcus aureus, ATCC25923
L929 cell line = experiment: MTT cytotoxicity assay; type: cell-based, mouse; details: for cytotoxicity: L929, 24 h culture
Protocol: Among all the newly synthesized compounds, four compounds designated as: 14, 20, 21 and 27 were selected for further testing of their cytotoxic properties at the doses of 10, 25, 50, 75 and 100 µM. The cytotoxic properties of the above compounds were tested on the cancer cell lines, i.e., A549 (ECACC 86012804) (non-small-cell lung cancer), T47D (ECACC 85102201) (breast cancer), HeLa (ATCC® CCL-2™) (cervical cancer) and normal line L929 (NCTC clone 929, ATCC® CCL-1™) (mouse fibroblasts) using the MTT test for 24- and 48 h cultures.
A549 (ECACC 86012804) (non-small-cell lung cancer) and T47D (ECACC 85102201) (breast cancer) were obtained from ECACC and propagated in Dulbecco’s Minimal Essential Medium, supplemented with 2 mM of glutamine, antibiotics ([…] streptomycin, 1% of 100 U/L penicillin) and 10% Fetal Bovine Serum. HeLa (ATCC® CCL-2™) (cervical cancer) and L929 (NCTC clone 929, ATCC® CCL-1™) (mouse fibroblasts) cell lines were obtained from ATCC and propagated in the Eagle Minimal Essential Medium supplemented with antibiotics ([…] streptomycin, 1% of 100 U/L penicillin) and with 10% and 5% FBS, respectively. The cell line was routinely grown in 75 cm^2 tissue culture flasks and kept in an incubator (humidified atmosphere of 5% CO2 at 37 °C). All examined cell lines were tested against mycoplasma contamination with microbiological assays.
The cell viability of tested compounds (14, 20, 21 and 27) was assessed by the MTT assay. In brief, the exponentially growing cells were plated in 100 μL/well in 96-well plates. After 24 h culturing, the cells were treated with different concentrations of compounds (range 10–100 μM). After 24 and 48 h of incubation, 10 μL of 5 mg/mL MTT was added to each well and the plates were incubated at 37 °C for additional 4 h. The medium was subsequently removed, the purple-colored precipitates of formazan were dissolved in 100 μL of DMSO. The color absorbance was recorded at 570 nm using a BioTek model EPOCH ELISA plate reader. All experiments were performed in triplicate. The absorbance values were in the range of linearity of the Lambert–Beer law.

[3] = test system: Salmonella typhimurium ATCC 14028; experiment: Broth microdilution MIC/MBC; details: for MBC / MIC: Salmonella enterica; for MBC/MIC: Salmonella typhimurium ATCC 14028
[4] = test system: Bordetella bronchiseptica ATCC 4617; experiment: Broth microdilution MIC/MBC; details: ATCC4617
[5] = test system: Proteus mirabilis ATCC 12453; experiment: Broth microdilution MIC/MBC; details: ATCC12453

Compound | MBC [1] | MIC [1] | MBC [2] | MIC [2] | cell proliferation (L929 cell line; L929, 24h, 10 µM, Repeat No 1) | cell proliferation (L929 cell line; L929, 24h, 10 µM, Repeat No 2) | cell proliferation (L929 cell line; L929, 24h, 25 µM, Repeat No 1) | cell proliferation (L929 cell line; L929, 24h, 25 µM, Repeat No 2) | cell proliferation (L929 cell line; L929, 24h, 50 µM, Repeat No 1) | cell proliferation (L929 cell line; L929, 24h, 50 µM, Repeat No 2) | cell proliferation (L929 cell line; L929, 24h, 75 µM, Repeat No 1) | cell proliferation (L929 cell line; L929, 24h, 75 µM, Repeat No 2) | cell proliferation (L929 cell line; L929, 24h, 100 µM, Repeat No 1) | cell proliferation (L929 cell line; L929, 24h, 100 µM, Repeat No 2) | cytotoxicity (L929 cell line; tested doses 10–100 µM) | cell proliferation (L929 cell line; L929, 48h, 10 µM, Repeat No 1) | cell proliferation (L929 cell line; L929, 48h, 10 µM, Repeat No 2) | cell proliferation (L929 cell line; L929, 48h, 25 µM, Repeat No 1) | cell proliferation (L929 cell line; L929, 48h, 25 µM, Repeat No 2) | cell proliferation (L929 cell line; L929, 48h, 50 µM, Repeat No 1) | other results
O=C(N/N=C/c1cc(I)cc(I)c1O)c1ccccc1I [Compound 14, N-[(3,5-diiodo-2-hydroxyphenyl)methylidene]-2-iodobenzohydrazide] | 500 µg/mL (≈ 809 µM) | 500 µg/mL (≈ 809 µM) | 250 µg/mL (≈ 405 µM) | 125 µg/mL (≈ 202 µM) | 94% | 94% | 100% | 89% | 85% | 73% | 77% | 69% | 91% | 97% | approximately 20% | 75% | 99% | 106% | 99% | 83% | cytotoxicity (L929 cell line; dose of 75 µM): around 40%; cell proliferation (L929 cell line; L929, 48h, 50 µM, Repeat No 2): 98%; cell proliferation (L929 cell line; L929, 48h, 75 µM, Repeat No 1): 83%; cell proliferation (L929 cell line; L929, 48h, 75 µM, Repeat No 2): 89%; cell proliferation (L929 cell line; L929, 48h, 100 µM, Repeat No 1): 94%; cell proliferation (L929 cell line; L929, 48h, 100 µM, Repeat No 2): 101%
O=C(N/N=C/c1cc(Cl)cc(I)c1O)c1cccc(I)c1 [Compound 20, N-[(5-chloro-2-hydroxy-3-iodophenyl)methylidene]-3-iodobenzohydrazide] | 31.2 µg/mL (≈ 59.4 µM) | 7.81 µg/mL (≈ 14.8 µM) | 3.91 µg/mL (≈ 7.43 µM) | 1.95 µg/mL (≈ 3.7 µM) | 99% | 104% | 89% | 95% | 87% | 112% | 103% | 96% | 86% | 94% | approximately 20% | 91% | 102% | 88% | 93% | 94% | cell proliferation (L929 cell line; L929, 48h, 50 µM, Repeat No 2): 99%; cell proliferation (L929 cell line; L929, 48h, 75 µM, Repeat No 1): 94%; cell proliferation (L929 cell line; L929, 48h, 75 µM, Repeat No 2): 99%; cell proliferation (L929 cell line; L929, 48h, 100 µM, Repeat No 1): 87%; cell proliferation (L929 cell line; L929, 48h, 100 µM, Repeat No 2): 84%; MBC [3]: > 1000 µg/mL; MIC [3]: 1000 µg/mL (≈ 1900 µM); MBC/MIC [3]: > 1; MBC [4]: > 1000 µg/mL; MBC/MIC [4]: > 2; MIC [4]: 500 µg/mL (≈ 950 µM); MBC [5]: 1000 µg/mL (≈ 1900 µM); MBC/MIC [5]: 2; MIC [5]: 500 µg/mL (≈ 950 µM)
O=C(N/N=C/c1cc(Br)cc(Br)c1O)c1cccc(I)c1 [Compound 21, N-[(3,5-dibromo-2-hydroxyphenyl)methylidene]-3-iodobenzohydrazide] | 31.2 µg/mL (≈ 59.6 µM) | 7.81 µg/mL (≈ 14.9 µM) | 31.2 µg/mL (≈ 59.6 µM) | 7.81 µg/mL (≈ 14.9 µM) | 96% | 102% | 101% | 97% | 100% | 106% | 118% | 109% | 89% | 96% | approximately 20% | 94% | 98% | 89% | 97% | 89% | cell proliferation (L929 cell line; L929, 48h, 50 µM, Repeat No 2): 88%; cell proliferation (L929 cell line; L929, 48h, 75 µM, Repeat No 1): 104%; cell proliferation (L929 cell line; L929, 48h, 75 µM, Repeat No 2): 96%; cell proliferation (L929 cell line; L929, 48h, 100 µM, Repeat No 1): 89%; cell proliferation (L929 cell line; L929, 48h, 100 µM, Repeat No 2): 84%; MIC [3]: > 1000 µg/mL; MIC [4]: > 1000 µg/mL; MIC [5]: > 1000 µg/mL
O=C(N/N=C/c1cc(Cl)cc(I)c1O)c1ccc(I)cc1 [Compound 27, N-[(5-chloro-2-hydroxy-3-iodophenyl)methylidene]-4-iodobenzohydrazide] | 500 µg/mL (≈ 950 µM) | 125 µg/mL (≈ 237 µM) | 250 µg/mL (≈ 475 µM) | 62.5 µg/mL (≈ 119 µM) | 101% | 89% | 96% | 92% | 95% | 81% | 103% | 107% | 92% | 91% | approximately 20% | 92% | 89% | 95% | 99% | 92% | cell proliferation (L929 cell line; L929, 48h, 50 µM, Repeat No 2): 91%; cell proliferation (L929 cell line; L929, 48h, 75 µM, Repeat No 1): 99%; cell proliferation (L929 cell line; L929, 48h, 75 µM, Repeat No 2): 92%; cell proliferation (L929 cell line; L929, 48h, 100 µM, Repeat No 1): 87%; cell proliferation (L929 cell line; L929, 48h, 100 µM, Repeat No 2): 92%; MBC [3]: 1000 µg/mL (≈ 1900 µM); MIC [3]: 500 µg/mL (≈ 950 µM); MBC/MIC [3]: 2; MBC [4]: 1000 µg/mL (≈ 1900 µM); MBC/MIC [4]: 2; MIC [4]: 500 µg/mL (≈ 950 µM); MBC [5]: 1000 µg/mL (≈ 1900 µM); MBC/MIC [5]: 2; MIC [5]: 500 µg/mL (≈ 950 µM)
